Entries after “also recorded” stand apart in the source; their conditions may differ.
Experiments:
Assay type in all cases: biochemical
[1] = system: Vaccinia Capping Enzyme (VCE)
[2] = system: Vaccinia Capping Enzyme (VCE); remark: listed apart in the source
[3] = system: 3′ DTB-GTP capped 25mer T7 transcript; details: 30 minutes at 37° C. in 1× Thermopol Buffer
[4] = system: Cap0 or Cap1 25 mer transcript; details: 5-135 ng protein, 10 minutes at 30° C.

Question: With “2′-DBT-TEG-guanosine 5′ triphosphate [2′ DBT-TEG-GTP]” as the molecule, how does the “recovery of transcript after streptavidin binding and biotin elution” value [1] read?
Answer: little to no P^32; also recorded: no better than control GTP for recovery

Question: Which results are given for “3′-DBT-TEG-guanosine 5′ triphosphate [3′ DBT-TEG-GTP]”?
Answer: recovery of transcript after streptavidin binding and biotin elution [1]: selectively bound to the streptavidin beads and eluted with 10 mM biotin; also recorded: recovered after binding to streptavidin; capping of 5′ diphosphate RNA by VCE [2]: substrate for capping; capping of 5′ triphosphorylated RNA by VCE [2]: effectively caps

Question: Which “capping of 5′ triphosphorylated RNA by VCE” value [2] does the source give for `C#CCO[C@H]1[C@@H](O)[C@H](n2cnc3c(=O)[nH]c(N)nc32)O[C@@H]1COP(=O)(O)OP(=O)(O)OP(=O)(O)O` [3′ propargyl-GTP, 3′(O-Propargyl) Guanosine 5′ Triphosphate] here?
Answer: efficiently incorporated as a modified cap

Question: Which “capping of 5′ triphosphorylated RNA by VCE” value [2] does the source give for `[N-]=[N+]=N[C@H]1C[C@H](n2cnc3c(=O)[nH]c(N)nc32)O[C@@H]1COP(=O)(O)OP(=O)(O)OP(=O)(O)O` [3′-azido-GTP, 3′-Azido-2′,3′ ddGTP, reference compound] here?
Answer: can be capped

Question: For `Nc1nc2c(ncn2[C@@H]2O[C@H](COP(=O)(O)OP(=O)(O)OP(=O)(O)O)[C@@H](O)[C@H]2O)c(=O)[nH]1` [GTP, reference compound], which “recovery of transcript after streptavidin binding and biotin elution” value [1] is on record?
Answer: little to no P^32

B1: RppH (protein, UniProt P0A776 1-176, looked up)
RNA pyrophosphohydrolase: MIDDDGYRPNVGIVICNRQGQVMWARRFGQHSWQFPQGGINPGESAEQAMYRELFEEVGLSRKDVRILASTRNWLRYKLPKRLVRWDTKPVCIGQKQKWFLLQLVSGDAEINMQTSSTPEFDGWRWVSYWYPVRQVVSFKRDVYRRVMKEFASVVMSLQENTPKPQNASAYRRKRG
Question: How did the “decapping of DTB-GTP-capped RNA” value [3] turn out when B1 was run?
Answer: effectively decaps

B2: S. pombe HNT3 protein (protein, UniProt O74859 1-232, looked up)
Aprataxin-like protein: MSVHKTNDAFKVLMNSAKEPIVEDIPKKYRKQSFRDNLKVYIESPESYKNVIYYDDDVVLVRDMFPKSKMHLLLMTRDPHLTHVHPLEIMMKHRSLVEKLVSYVQGDLSGLIFDEARNCLSQQLTNEALCNYIKVGFHAGPSMNNLHLHIMTLDHVSPSLKNSAHYISFTSPFFVKIDTPTSNLPTRGTLTSLFQEDLKCWRCGETFGRHFTKLKAHLQEEYDDWLDKSVSM
Question: With B2 as the molecule, how does the “decapping of capped RNA” value [4] read?
Answer: can decap RNA

From patent US20230022745A1, “Methods for Labeling a Population of RNA Molecules” (priority 2013, published 2023)
